Drawing on patent US8648066B2 (Exelixis, Inc., priority 2009, dated 2014), this text covers IC50 for 29 compounds.

This experiment has as its target mTOR/GbL/Raptor (mTORC1) (Homo sapiens, UniProt P42345). The experiment in a line: mTOR/GbL/Raptor (mTORC1) ELISA assay. The class given is biochemical. Particulars: phosphorylation of 4E-BP1; 0.2 nM mTORC1, 10 μM ATP; read-out: IC50 in this assay (mTORC1 ELISA). In a few lines:
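Human mTORC1 (0.2 nM) phosphorylated 50 nM His-tagged 4E-BP1 with 10 µM ATP in HEPES pH 7.2 containing 10 mM MnCl2, 120 min at ambient temperature. Substrate was captured on Ni-chelate plates; phospho-4E-BP1 was detected by primary antibody and HRP secondary with luminescence.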

pIC50: −log10 of the molar value. Bounds are passed on as bounds.

Regarding `CCNc1nc2ccc(-c3ccc4c(c3)CN(c3cc(Nc5cccc(OC)c5)ncn3)CCO4)cc2[nH]1` [Example 284, N-ethyl-6-[4-(6-{[3-(methyloxy)phenyl]amino}pyrimidin-4-yl)-2,3,4,5-tetrahydro-1,4-benzoxazepin-7-yl]-1H-benzimidazol-2-amine], the negative logarithm of the IC50 (pIC50) was 6.00 to 6.60.
As to `Cc1nc2ncc(-c3ccc4c(c3)CN(c3ncnc(C)c3C)CCO4)cc2[nH]1` [Example 257, 4-(5,6-dimethylpyrimidin-4-yl)-7-(2-methyl-1H-imidazo[4,5-b]pyridin-6-yl)-2,3,4,5-tetrahydro-1,4-benzoxazepine], the pIC50 is 6.00 to 6.60.
Next, `Cc1nc2ccc(-c3ccc4c(c3)CN(c3ccnc(Nc5ccccc5)n3)CCO4)cc2[nH]1` [Example 253, 4-[7-(2-methyl-1H-benzimidazol-6-yl)-2,3-dihydro-1,4-benzoxazepin-4(5H)-yl]-N-phenylpyrimidin-2-amine]: 6.60 to 7.30.
Next, `CC1(C)CCc2ncnc(N3CCOc4ccc(-c5cnc(N)c(S(=O)(=O)NCC6CCNCC6)c5)cc4C3)c2C1` [Example 378, 2-amino-5-[4-(6,6-dimethyl-5,6,7,8-tetrahydroquinazolin-4-yl)-2,3,4,5-tetrahydro-1,4-benzoxazepin-7-yl]-N-(piperidin-4-ylmethyl)pyridine-3-sulfonamide]: 6.60 to 7.30; `Cc1nc2ccc(-c3ccc4c(c3)CN(c3ncnc(C)c3Cc3ccc(Cl)c(N(C)C)c3)CCO4)cc2[nH]1` [Example 93, 2-chloro-N,N-dimethyl-5-({4-methyl-6-[7-(2-methyl-1H-benzimidazol-6-yl)-2,3-dihydro-1,4-benzoxazepin-4(5H)-yl]pyrimidin-5-yl}methyl)aniline]: not below 8.00.
On to `COc1ccc2c(N3CCOc4ccc(-c5cnc(N)c(S(=O)(=O)C[C@@H](C)CO)c5)cc4C3)ncnc2c1` [Example 303, (2S)-3-[(2-amino-5-{4-[7-(methyloxy)quinazolin-4-yl]-2,3,4,5-tetrahydro-1,4-benzoxazepin-7-yl}pyridin-3-yl)sulfonyl]-2-methylpropan-1-ol], for which the pIC50 was 6.00 to 6.60.
With `COc1ccc2c(N3CCOc4ccc(-c5ccc(N)nc5)cc4C3)nc(C)nc2c1` [Example 273, 5-{4-[2-methyl-7-(methyloxy)quinazolin-4-yl]-2,3,4,5-tetrahydro-1,4-benzoxazepin-7-yl}pyridin-2-amine], the negative logarithm of the IC50 (pIC50) was 6.00 to 6.60.
`CN(C)Cc1nc2c(c(N3CCOc4ccc(-c5ccc(-c6ncc[nH]6)cc5)cc4C3)n1)CC(C)(C)CC2` [Example 325]: the negative logarithm of the IC50 (pIC50) was not below 8.00.
In the case of `CCCc1c(C)nc(CN(C)C)nc1N1CCOc2ccc(-c3ccc4nc(C)[nH]c4c3)cc2C1` [Example 653, N,N-dimethyl-1-{4-methyl-6-[7-(2-methyl-1H-benzimidazol-6-yl)-2,3-dihydro-1,4-benzoxazepin-4(5H)-yl]-5-propylpyrimidin-2-yl}methanamine] it was 6.00 to 6.60.
Next, `Cc1nc2ncc(-c3ccc4c(c3)CN(c3ncnc(C)c3Br)CCO4)cc2[nH]1` [Example 468, 4-(5-bromo-6-methylpyrimidin-4-yl)-7-(2-methyl-1H-imidazao[4,5-b]pyridin-6-yl)-2,3,4,5-tetrahydro-1,4-benzoxazepine]: 6.60 to 7.30; `CC1(C)CCc2ncnc(N3CCOc4ccc(-c5cnc6nccnc6c5)cc4C3)c2C1` [Example 477, 4-(6,6-dimethyl-5,6,7,8-tetrahydroquinazolin-4-yl)-7-pyrido[2,3-b]pyrazin-7-yl-2,3,4,5-tetrahydro-1,4-benzoxazepine]: 6.00 to 6.60.
In the case of `Cc1nc(CN(C)C)nc(N2CCOc3ccc(-c4cnc5sc(N)nc5c4)cc3C2)c1-c1ccccc1` [Example 682, 6-(4-{2-[(dimethylamino)methyl]-6-methyl-5-phenylpyrimidin-4-yl}-2,3,4,5-tetrahydro-1,4-benzoxazepin-7-yl)[1,3]thiazolo[5,4-b]pyridin-2-amine], the pIC50 was 7.30 to 8.00.
With `CNC(=O)c1ccc(-c2ccc3c(c2)CN(c2ccnc4ccccc24)CCO3)cc1` [Example 239, N-methyl-4-(4-quinolin-4-yl-2,3,4,5-tetrahydro-1,4-benzoxazepin-7-yl)benzamide], the pIC50 was 6.60 to 7.30.
`Cc1nc2ncc(-c3ccc4c(c3)CN(c3nc(CN5CCCCC5)nc5c3CC(C)(C)CC5)CCO4)cc2[nH]1` [Example 499, 4-[6,6-dimethyl-2-(piperidin-1-ylmethyl)-5,6,7,8-tetrahydroquinazolin-4-yl]-7-(2-methyl-1H-imidazo[4,5-b]pyridin-6-yl)-2,3,4,5-tetrahydro-1,4-benzoxazepine]: the negative-log IC50 (pIC50) was 6.60 to 7.30.
As to `CC1(C)CCc2ncnc(N3CCOc4ccc(-c5cnc(N)c(S(=O)(=O)NCC6CNC6)c5)cc4C3)c2C1` [Example 415, 2-amino-N-(azetidin-3-ylmethyl)-5-[4-(6,6-dimethyl-5,6,7,8-tetrahydroquinazolin-4-yl)-2,3,4,5-tetrahydreo-1,4-benzoxazepin-7-yl]pyridine-3-sulfonamide], the negative-log IC50 (pIC50) is 7.30 to 8.00.
In the case of `Cc1nc2c(c(N3CCOc4ccc(-c5cnc6nc(C)[nH]c6c5)cc4C3)n1)CC(C)(C)CC2` [Example 550, 7-(2-methyl-1H-imidazo[4,5-b]pyridin-6-yl)-4-(2,6,6-trimethyl-5,6,7,8-tetrahydroquinazolin-4-yl)-2,3,4,5-tetrahydro-1,4-benzoxazepine] it was not below 8.00.
In the case of `COCCOc1ccc(-c2ccc3c(c2)CN(c2nc(CN(C)C)nc4c2CC(C)(C)CC4)CCO3)cc1OC` [Example 327, 1-(6,6-dimethyl-4-{7-[3-(methyloxy)-4-{[2-(methyloxy)ethyl]oxy}phenyl]-2,3-dihydro-1,4-benzoxazepin-4(5H)-yl}-5,6,7,8-tetrahydroquinazolin-2-yl)-N,N-dimethylmethanamine], the pIC50 is 6.00 to 6.60.
Turning to `Cc1nc2ccc(-c3ccc4c(c3)CN(c3ncnc(C)c3C(C)c3ccccc3)CCO4)cc2[nH]1` (centres unmarked) [Example 74], the pIC50 was not below 8.00.
In the case of `CC1(C)CCc2ncnc(N3CCOc4ccc(-c5cnc(N)c(S(=O)(=O)NCCCN)c5)cc4C3)c2C1` [Example 414, 2-amino-N-(3-aminopropyl)-5-[4-(6,6-dimethyl-5,6,7,8-tetrahydroquinazolin-4-yl)-2,3,4,5-tetrahydro-1,4-benzoxazepin-7-yl]pyridine-3-sulfonamide], the pIC50 is 7.30 to 8.00.
As to `Cc1ncnc(N2CCOc3ccc(-c4cnc(N)s4)cc3C2)c1Cc1ccc(F)cc1` [Example 124, 5-(4-{5-[(4-fluorophenyl)methyl]-6-methylpyrimidin-4-yl}-2,3,4,5-tetrahydro-1,4-benzoxazepin-7-yl)-1,3-thiazol-2-amine], the pIC50 is not below 8.00.
Regarding `CCc1ncnc(N2CCOc3ccc(-c4cnc5nc(C)[nH]c5c4)cc3C2)c1C` [Example 245, 4-(6-ethyl-5-methylpyrimidin-4-yl)-7-(2-methyl-1H-imidazo[4,5-b]pyridin-6-yl)-2,3,4,5-tetrahydro-1,4-benzoxazepine], the pIC50 was 6.60 to 7.30.
On to `CC1(C)CCc2ncnc(N3CCOc4ccc(-c5cnc(N)c(S(=O)(=O)N[C@H]6CC[C@H](N)CC6)c5)cc4C3)c2C1` [Example 416, 2-amino-N-(trans-4-aminocyclohexyl)-5-[4-(6,6-dimethyl-5,6,7,8-tetrahydroquinazolin-4-yl)-2,3,4,5-tetrahydro-1,4-benzoxazepin-7-yl]pyridine-3-sulfonamide], for which the pIC50 is 6.60 to 7.30.
On to `CC1(C)CCc2ncnc(N3CCOc4ccc(-c5cnc(N)c(S(=O)(=O)N6C[C@@H]7C[C@H]6CN7)c5)cc4C3)c2C1` [Example 436, 3-[(1S,4S)-2,5-diazabicyclo[2.2.1]hept-2-ylsulfonyl]-5-[4-(6,6-dimethyl-5,6,7,8-tetrahydroquinazolin-4-yl)-2,3,4,5-tetrahydro-1,4-benzoxazepin-7-yl]pyridin-2-amine], for which the pIC50 was not below 8.00.
As for `CCNc1nc(C)nc(N2CCOc3ccc(-c4cnc5nc(C)[nH]c5c4)cc3C2)c1C` [Example 637, N-ethyl-2,5-dimethyl-6-[7-(2-methyl-1H-imidazo[4,5-b]pyridin-6-yl)-2,3-dihydro-1,4-benzoxazepin-4(5H)-yl]pyrimidin-4-amine], the pIC50 is 6.00 to 6.60.
`Cc1nc2ncc(-c3ccc4c(c3)CN(c3ncnc5c3CCCC5(C)C)CCO4)cc2[nH]1` [Example 485, 4-(8,8-dimethyl-5,6,7,8-tetrahydroquinazolin-4-yl)-7-(2-methyl-1H-imidazo[4,5-b]pyridin-6-yl)-2,3,4,5-tetrahydro-1,4-benzoxazepine]: the pIC50 was 7.30 to 8.00.
Next, `Cc1nc2ccc(-c3ccc4c(c3)CN(c3ncnc5cc(S(C)(=O)=O)ccc35)CCO4)cc2[nH]1` [Example 40, 7-(2-methyl-1H-benzimidazol-6-yl)-4-[7-(methylsulfonyl)quinazolin-4-yl]-2,3,4,5-tetrahydro-1,4-benzoxazepine]: 6.60 to 7.30; `CC[C@H]1CCc2c(nc(C)nc2N2CCOc3ccc(-c4cnc5nc(C)[nH]c5c4)cc3C2)C1` [Example 487, 4-[(7S)-7-ethyl-2-methyl-5,6,7,8-tetrahydroquinazolin-4-yl]-7-(2-methyl-1H-imidazo[4,5-b]pyridin-6-yl)-2,3,4,5-tetrahydro-1,4-benzoxazepine]: 7.30 to 8.00.
Consider `Cc1nc2ncc(-c3ccc4c(c3)CN(c3nc(CNCCF)nc5c3CC(C)(C)CC5)CCO4)cc2[nH]1` [Example 593, N-({6,6-dimethyl-4-[7-(2-methyl-1H-imidazo[4,5-b]pyridin-6-yl)-2,3-dihydro-1,4-benzoxazepin-4(5H)-yl]-5,6,7,8-tetrahydroquinazolin-2-yl}methyl)-2-fluoroethanamine], for which the pIC50 was not below 8.00.
As for `Cc1nc2ncc(-c3ccc4c(c3)CN(c3nc(CNC(C)(C)C)nc5c3CC(C)(C)CC5)CCO4)cc2[nH]1` [Example 595, N-({6,6-dimethyl-4-[7-(2-methyl-1H-imidazo[4,5-b]pyridin-6-yl)-2,3-dihydro-1,4-benzoxazepin-4(5H)-yl]-5,6,7,8-tetrahydroquinazolin-2-yl}methyl)-2-methylpropan-2-amine], the pIC50 was 7.30 to 8.00.
